# Assay results from patent publication US9353075B2, “Disubstituted beta-lactones as inhibitors of N-acylethanolamine acid amidase (NAAA)” (The Regents of the University of California, priority 2011, dated 2016).
# “Also recorded” adds a separate entry of the source. Read-outs that look alike come from different tables or passages of the source.
# Legend:
# h-NAAA = h-NAAA (Homo sapiens (Human), UniProt Q02083); test: UPLC/MS h-NAAA assay; format: biochemical
# Experimental: NAAA protein preparation (10 μg) was pre-incubated with various concentrations of test compound or vehicle control in 100 mM NaH2PO4, 100 mM Tri Sodium Citrate Dehydrate, 0.1% Triton-X 100, 3 mM DTT, pH 4.5 for 30 min at 37° C. Duplicate samples were then incubated with 50 μM C17:1 10-cis-heptadecenoylethanolamide (Avanti Polar Lipids, Alabaster, Ala.—USA) at 37° C. for 30 minutes. The reaction was terminated by the addition of 0.2 mL of cold methanol containing 1 nmol of heptadecanoic acid (NuChek Prep, Elysian, Minn.—USA) as internal standard. Samples were then analyzed by UPLC/MS. Heptadecenoic and heptadecanoic acids were eluted on an Acquity UPLC BEH C18 column (50 mm length, 2.1 mm i.d., 1.7 μm pore size, Waters) isocratically at 0.5 mL/min for 1.5 min with a solvent mixture of 95% methanol and 5% water, both containing 0.25% Acetic Acid and 5 mM Ammonium Acetate. The column temperature was 40° C. Electrospray ionization was in the negative mode, capillary voltage was 2.7 kV, cone voltage was 45 V, extractor voltage was 3 V. The source temperature was 150° C. with a desolvation temperature of 400° C. N2 was used as drying gas at a cone flow of 100 L/hour and a desolvation flow of […]. The [M−H]-ion was monitored in the selected-ion monitoring mode (m/z values: heptadecenoic acid 267.37, heptadecanoic acid 269.37). Calibration curves were generated using commercial heptadecenoic acid (NuCheck Prep) Inhibition of NAAA activity was calculated as reduction of heptadecenoic acid in the samples compared to vehicle controls. IC50 values were calculated by non-linear regression analysis of log [concentration]/inhibition curves using GraphPad Prism 5 (GraphPad Software Inc., CA—USA) applying a standard slope curve fitting.
# Acid Ceramidase (AC) = Acid Ceramidase (AC) (Rattus norvegicus (Rat), UniProt Q6P7S1); test: Acid ceramidase inhibition, recombinant rat AC, LC-MS; format: biochemical; settings: read-out: r-AC % inhib. @ 10 μM
# Acid Ceramidase (AC), sequence (Q6P7S1 21-394): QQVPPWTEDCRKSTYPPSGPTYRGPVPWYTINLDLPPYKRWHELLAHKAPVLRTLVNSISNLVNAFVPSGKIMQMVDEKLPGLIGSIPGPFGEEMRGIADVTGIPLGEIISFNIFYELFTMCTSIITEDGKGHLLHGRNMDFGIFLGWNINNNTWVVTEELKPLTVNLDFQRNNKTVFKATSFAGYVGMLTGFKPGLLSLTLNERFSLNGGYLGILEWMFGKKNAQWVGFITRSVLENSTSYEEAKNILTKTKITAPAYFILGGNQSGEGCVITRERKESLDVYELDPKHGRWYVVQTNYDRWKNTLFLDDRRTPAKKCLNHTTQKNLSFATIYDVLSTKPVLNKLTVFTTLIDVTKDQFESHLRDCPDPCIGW
# Experimental: The PCR (High Fidelity PCR Master, Roche) product was subcloned into a pEF6-[…] vector (Invitrogen) to construct a mammalian expression vector encoding […]-tagged rat AC. HEK293 cells were transfected with pEF6-rAC-[…] using Super-Fect reagent (Qiagen) and screened with G418 (0.3 mg/mL). Cells were suspended in 20 mM Tris HCl (pH 7.5) containing 0.32M sucrose, sonicated and centrifuged at 800×g for 15 minutes at 4° C. The supernatants were centrifuged again at 12,000×g for 30 minutes at 4° C. The pellets were suspended in phosphate-buffered saline (PBS) and subjected to 2 freeze-thaw cycles at -80° C. The suspensions were centrifuged at 105,000×g for 1 hour at 4° C. The supernatants containing recombinant AC were kept at -80° C. until use. Protein concentration was measured using the bicinchoninic acid (BCA) assay (Pierce). […] Reactions were stopped by addition of a mixture of chloroform/methanol (2:1, vol/vol) containing 1 nmol of heptadecanoic acid (HDA; NuChek Prep). […] HDA was eluted on an XDB Eclipse C18 column isocratically at 2.2 mL/min for 1 minute with a solvent mixture of 95% methanol and 5% water, both containing 0.25% acetic acid and 5 mM ammonium acetate. The column temperature was 50° C. Electrospray ionization (ESI) was in the negative mode, capillary voltage as 4 kV, and fragmentor voltage was 100 V. N2 was used as drying gas at a flow rate of 13 L/min and a temperature of 350° C. Nebulizer pressure was set at 60 psi. We monitored [M-H]- in the selected-ion monitoring (SIM) mode using HDA as internal standard. Calibration curves were generated using commercial lauric acid (Nu-Chek Prep; m/z=199).
# DNFB-induced dermatitis = test: DNFB contact dermatitis in mice, ear thickness; format: in vivo, mouse
# Experimental: 2,4-dinitrofluorobenzene (DNFB) (Sigma-Aldrich, Italy) was dissolved in acetone. On day 1 and 2, mice (CD1, 25-30 g, Charles River, Calco, Italy) were sensitized on the skin of the abdomen with hapten (20 μL of 0.5% DNFB). After 5 days, on day 7, mice were challenged with hapten (20 μL of 0.2% DNFB) in the earlobe and treated with drugs to be tested. Control group received the vehicle used to dissolve drugs. Mice (five per group) were placed in a plastic cage. On day 8, ear thickness was determined after challenge using a caliper. Results are expressed as absolute ear thickness.
# Fresh drug suspensions of compound 6 were prepared immediately before use in a vehicle consisting of petrolatum plus 5% lauric acid and given in a volume of 20 μL/mouse. Mice were treated with different concentrations of compound 6 or vehicle together with DNFB challenge on […].
# Compound 6 and the reported β-lactone NAAA inhibitor (S)-OOPP (Solorzano et al., Proceedings of the National Academy of Science USA 2009, 106, 20966-20971; Solorzano et al., Journal of Medicinal Chemistry 2010, 53, 5770-5781) were tested in this model for their contact sensitivity response. Fresh drug solutions of (S)-OOPP and compound 6 were prepared immediately before use in polyethylene glycol 400 (PEG 400) and given in a volume of 20 μL/ear. Mice were treated with different concentrations of (S)-OOPP, 0.1% compound 6 or vehicle each day for 7 days. Ear thickness was determined on day 0 and every day before challenge using a caliper. Results are expressed as absolute ear thickness.
# The methods included the following. Dermatitis was produced in mice using 2-4 dinitrofluorobenzene (DNFB) as described by Buckley and Nijkamp (1994), Am J Respir Grit Care Med 149:400-7. Mice were sensitized on two consecutive days with a 0.5% DNFB solution applied to the shaved abdomen. At day 8, the ears were challenged with a 0.2% DNFB solution. Ear thickness was determined by using a micrometer. Scratching was evaluated as number of episodes per 60 minutes period. Data were analysed by ANOVA followed by the Bonferroni's test. See also Hargreaves K, et al (1988), Pain 32: 77-88 for related information.
# [1] = tested on: skin integrity (ear thickness, histopathology); settings: in vivo
# Experimental: The methods included the following. Drug or vehicle were given topical to both ears of CD1 mice for 14 days. Ear thickness was determined by using a micrometer. Histopathological analyses were conducted on formalin-fixed, paraffin-embedded ear sections […] thick and stained with Hematoxylin-Eosin. Epidermal thickness was measured with standard morphometric methods from 12 different samplings spanning the treated area of each ear. Data were analysed by ANOVA followed by Bonferroni's test for multiple comparisons.
# [2] = established DNFB-induced ear edema
# [3] = repeated dosing, 8 days before DNFB challenge
# h-NAAA, sequence (Q02083 29-359): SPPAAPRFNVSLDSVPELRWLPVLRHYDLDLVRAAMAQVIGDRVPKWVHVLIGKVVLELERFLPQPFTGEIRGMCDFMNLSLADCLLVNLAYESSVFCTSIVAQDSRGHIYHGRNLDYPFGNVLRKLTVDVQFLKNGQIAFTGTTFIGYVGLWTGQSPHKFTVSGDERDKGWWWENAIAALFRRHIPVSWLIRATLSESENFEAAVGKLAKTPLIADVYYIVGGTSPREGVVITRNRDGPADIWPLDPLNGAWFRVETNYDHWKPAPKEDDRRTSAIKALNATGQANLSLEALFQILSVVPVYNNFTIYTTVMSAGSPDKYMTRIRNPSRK
smiles,measurement,setting,value
"C[C@@H]1OC(=O)[C@@H]1NC(=O)OCCCCCc1ccccc1 [Example 6, 5-phenylpentyl-[(2S,3R)-2-methyl-4-oxooxetan-3-yl]-carbamate]",IC50,h-NAAA,7 nM
same,inhibition at 10 µM,Acid Ceramidase (AC),< 10%
same,"Doses of full efficacy, single dosing protocol",DNFB-induced dermatitis; [2],10-30%
same,"Effective dose-range, repeated dosing protocol",DNFB-induced dermatitis; [2],0.01-1%
same,"Time of administration to full efficacy, repeated dosing",DNFB-induced dermatitis; [2],3 days
same,Ear swelling 24 h after DNFB challenge,"DNFB-induced dermatitis; mice, 1-30% w/w suspension in petrolatum plus 5% lauric acid",dose-dependently inhibited ear swelling
same,Contact sensitivity response (ear swelling),"DNFB-induced dermatitis; mice, PEG 400 solution, each day for 7 days, (S)-OOPP 0.1-10% w/v, compound 6 0.1%",significant decrease in ear swelling
same,"Established DNFB-induced ear edema (therapeutic effect), repeated dosing","DNFB-induced dermatitis; mice, topical, repeated dosing",reverses ear thickness increase; also recorded: reverses established DNFB-induced ear edema
same,"Established DNFB-induced ear thickness increase, single dosing","DNFB-induced dermatitis; mice, topical, single administration",reverses ear thickness increase; also recorded: efficacy is also noted
same,"Doses of complete efficacy, prophylactic protocol",DNFB-induced dermatitis; [3],0.1-1%
same,Prevention of DNFB-induced ear edema (prophylactic effect),DNFB-induced dermatitis; [3],prevents the development of DNFB-induced symptoms; also recorded: prevents DNFB-induced increased ear edema
same,"Cellular architecture, histopathological and morphometric analysis","[1]; CD1, mouse, 14 days","but not compound 6, altered cellular architecture"
same,Skin atrophy (decrease of ear thickness),"[1]; CD1, mouse, 14 days","but not compound 6, causes skin atrophy"
same,"Cellular architecture, histopathological and morphometric analysis",[1]; mouse,no alterations of cellular structure
same,Skin atrophy (decrease of ear thickness),[1]; mouse,did not affect skin integrity
